Data reported in patent US8044023B2, “Hepatitis C virus inhibitors” (Bristol-Myers Squibb Company, priority 2008, dated 2011).

Tests used:
[1] = molecular target: NS3/4A BMS Strain (UniProt P27958); assay: HCV NS3/4A protease complex enzyme assay; type: biochemical, Hepatitis C virus
Experimental: (§1) HCV NS3/4A protease complex enzyme assays and cell-based HCV replicon assays can be utilized in the present disclosure, and can be prepared, conducted and validated as described in the art (see, for Example, WO 2008/064061).
(§2) Compound 1 was tested as described above and found to have an IC50 (NS3/4A BMS Strain) of 4 nM. The EC50 is 5 nM.

[2] = test system: HCV replicon; assay: cell-based HCV replicon assay; settings: Hepatitis C virus
Experimental: as §1, §2

NS3/4A BMS Strain, sequence (P27958 1027-1657): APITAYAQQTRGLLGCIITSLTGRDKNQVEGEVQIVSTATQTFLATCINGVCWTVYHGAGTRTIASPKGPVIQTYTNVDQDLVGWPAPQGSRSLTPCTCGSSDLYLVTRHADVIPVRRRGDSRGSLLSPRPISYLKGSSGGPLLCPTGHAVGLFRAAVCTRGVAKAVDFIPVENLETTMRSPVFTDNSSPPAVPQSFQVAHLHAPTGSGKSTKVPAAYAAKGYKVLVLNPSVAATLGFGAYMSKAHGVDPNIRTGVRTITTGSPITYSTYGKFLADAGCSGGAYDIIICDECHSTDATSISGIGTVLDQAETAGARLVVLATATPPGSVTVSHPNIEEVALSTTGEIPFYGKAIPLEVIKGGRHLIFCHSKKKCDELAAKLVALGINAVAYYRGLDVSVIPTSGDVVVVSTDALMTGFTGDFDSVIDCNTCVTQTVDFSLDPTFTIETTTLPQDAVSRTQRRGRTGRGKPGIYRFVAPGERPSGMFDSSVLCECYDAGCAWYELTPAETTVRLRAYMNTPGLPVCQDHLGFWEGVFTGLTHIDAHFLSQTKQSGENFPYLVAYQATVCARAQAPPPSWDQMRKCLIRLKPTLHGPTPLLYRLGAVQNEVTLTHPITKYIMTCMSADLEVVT

CCCCS[C@@]1(c2ccc(-c3ccccc3)cc2)C[C@H]2C(=O)N[C@]3(C(=O)NS(=O)(=O)C4CC4)C[C@H]3/C=C\CCCCC[C@H](NC(=O)OC(C)(C)C)C(=O)N2C1 [Compound 1, tert-butyl (2R,6S,13aS,14aR,16aS,Z)-2-(biphenyl-4-yl)-2-(butylthio)-14a-(cyclopropylsulfonylcarbamoyl)-5,16-dioxo-1,2,3,5,6,7,8,9,10,11,13a,14,14a,15,16,16a-hexadecahydrocyclopropa[e]pyrrolo[1,2-a][1,4]diazacyclopentadecin-6-ylcarbamate]
IC50 [1]: 4 nM | EC50 [2]: 5 nM
